Measurements from patent publication EP2017264A1, “Substituted phenyl propargyl compounds, method for their manufacture and their use as herbicides and plant growth regulators” (BAYER CROPSCIENCE AG, priority 2007, dated 2009).

How the values were obtained:
[1] = test system: Echinochloa crus-galli, Setaria viridis, Stellaria media und Veronica persica; assay: Pre-emergence weed control, greenhouse pot test; type: in vivo; conditions: Aufwandmenge von 1,28 kg oder weniger Aktivsubstanz pro Hektar, visual rating after 3 bis 4 Wochen vs untreated controls
Source text: Samen bzw. Rhizomstücke von mono- und dikotylen Unkrautpflanzen wurden in Plastiktöpfen in sandiger Lehmerde ausgelegt und mit Erde abgedeckt. Die in Form von benetzbaren Pulvern oder Emulsionskonzentraten formulierten erfindungsgemäßen Verbindungen wurden dann als wäßrige Suspension bzw. Emulsion mit einer Wasseraufwandmenge von umgerechnet 600 bis 800 l/ha in unterschiedlichen Dosierungen auf die Oberfläche der Abdeckerde appliziert.
Nach der Behandlung wurden die Töpfe im Gewächshaus aufgestellt und unter guten Wachstumsbedingungen für die Unkräuter gehalten. Die optische Bonitur der Pflanzen- bzw. Auflaufschäden erfolgte nach dem Auflaufen der Versuchspflanzen nach einer Versuchszeit von 3 bis 4 Wochen im Vergleich zu unbehandelten Kontrollen. Wie die Testergebnisse zeigten, wiesen die erfindungsgemäßen Verbindungen eine gute herbizide Vorauflaufwirksamkeit gegen ein breites Spektrum von Ungräsern und Unkräutern auf.

[2] = physchem
Protocol: "LogP" = Verteilungskoeffizient in einem Zweiphasengemisch aus n-Octanol und Wasser.
Die log P-Daten wurden in Übereinstimmung mit der EEC Direktive 79/831, Anlage V.A8 (Annex V.A8) mittels HPLC (High Performance Liquid Chromatography) auf einer Umkehrphase-Säule (reversed-phase column) (C18) mit folgenden Methoden bestimmt: Temperatur: 40°C; Mobile Phase: 0,1 % bzw. 0,06 %ige wässrige Ameisensäure oder 0,1 % wässriger Phosphorsäure und Acetonitril; linearer Gradient von 10% Acetonitril bis 90% bzw. 95 % Acetonitril. Die Kalibrierung wurde ausgeführt mit Hilfe unverzweigter Alkan-2-one (bestehend aus 3 bis 13 bzw.16 Kohlenstoff-Atomen) mit bekannten IogP-Werten (Bestimmung der IogP-Werte über die Retentionszeiten mittels linearer Interpolation zwischen zwei nachfolgenden Alkanonen).

[3] = test system: Echinochloa crus-galli, Setaria viridis, Abuthilon theophrasti, Amaranthus retroflexus und Veronica persica; assay: Post-emergence weed control, greenhouse pot test; type: in vivo; conditions: three-leaf stage, Aufwandmenge von 1,28 kg und weniger Aktivsubstanz pro Hektar, visual rating after ca. 3 bis 4 Wochen vs untreated controls
Source text: Samen bzw. Rhizomstücke von mono- und dikotylen Unkräutern wurden in Plastiktöpfen in sandigem Lehmboden ausgelegt, mit Erde abgedeckt und im Gewächshaus unter guten Wachstumsbedingungen angezogen. Drei Wochen nach der Aussaat wurden die Versuchspflanzen im Dreiblattstadium behandelt. Die als Spritzpulver bzw. als Emulsionskonzentrate formulierten erfindungsgemäßen Verbindungen wurden in verschiedenen Dosierungen mit einer Wasseraufwandmenge von umgerechnet 600 bis 800 I/ha auf die grünen Pflanzenteile gesprüht. Nach ca. 3 bis 4 Wochen Standzeit der Versuchspflanzen im Gewächshaus unter optimalen Wachstumsbedingungen wurde die Wirkung der Präparate optisch im Vergleich zu unbehandelten Kontrollen bonitiert. Die erfindungsgemäßen Mittel wiesen auch im Nachauflauf eine gute herbizide Wirksamkeit gegen ein breites Spektrum wirtschaftlich wichtiger Ungräser und Unkräuter auf. Beispielsweise zeigten die Beispiele Nr.

chromatographic logP [2]	SMILES	herbizide Wirkung gegen Schadpflanzen im Vorauflaufverfahren [1]	herbizide Wirkung gegen Schadpflanzen im Nachauflaufverfahren [3]
4.23	COc1ncc(C=NOCC#Cc2cccc(SC)c2)cc1F [Beispiel 5.040]	sehr gute herbizide Wirkung	sehr gute herbizide Wirkung
4	COc1ccc(C=NOCC#Cc2cccc(SC)c2)cn1 [Beispiel 5.120]	sehr gute herbizide Wirkung	sehr gute herbizide Wirkung
4.87	CSc1cccc(C#CCON=Cc2ccc(OC(C)C)nc2)c1 [Beispiel 5.177]	sehr gute herbizide Wirkung	sehr gute herbizide Wirkung
2.42	CCOc1ccc(C=NOCC#Cc2cccc([S+](C)[O-])c2)cn1 (stereo not drawn) [Beispiel 5.189]	sehr gute herbizide Wirkung	sehr gute herbizide Wirkung
4.42	CCOc1ccc(C=NOCC#Cc2cccc(SC)c2)cn1 [Beispiel 5.190]	sehr gute herbizide Wirkung	sehr gute herbizide Wirkung
5.44	CSc1cccc(C#CCON=Cc2ccc(C3CCCC3)nc2)c1 [Beispiel 5.194]	–	–
4.81	COc1ncc(C=NOCC#Cc2cccc(SC)c2)cc1Br [Beispiel 5.197]	–	–
4.68	CCOc1ncc(C=NOCC#Cc2cccc(SC)c2)cc1F [Beispiel 5.199]	–	–

The remaining lines, values behind:

SMILES	chromatographic logP [2]	herbizide Wirkung gegen Schadpflanzen im Vorauflaufverfahren [1]	herbizide Wirkung gegen Schadpflanzen im Nachauflaufverfahren [3]
COc1ccccc1C=NOC(C)C#Cc1cccc(SC)c1 (stereo not drawn) [Beispiel 1.301]	4.85	sehr gute herbizide Wirkung	sehr gute herbizide Wirkung
Cc1cccc(C=NOC(C)C#Cc2cccc([S+](C)[O-])c2)n1 (stereo not drawn) [Beispiel 3.086]	1.57	sehr gute herbizide Wirkung	sehr gute herbizide Wirkung
COc1ncc(C=NOCC#Cc2cccc([S+](C)[O-])c2)cc1F (stereo not drawn) [Beispiel 5.041]	2.28	sehr gute herbizide Wirkung	sehr gute herbizide Wirkung
CC(C)Oc1ccc(C=NOCC#Cc2cccc([S+](C)[O-])c2)cn1 (stereo not drawn) [Beispiel 5.181]	2.77	sehr gute herbizide Wirkung	sehr gute herbizide Wirkung
COc1ccc(C=NOCC#Cc2cccc([S+](C)[O-])c2)c(OC)n1 (stereo not drawn) [Beispiel 5.185]	2.89	–	sehr gute herbizide Wirkung
CSc1ccc(C=NOCC#Cc2cccc([S+](C)[O-])c2)cn1 (stereo not drawn) [Beispiel 5.188]	2.23	–	sehr gute herbizide Wirkung
N#CCc1cccc(C#CCON=Cc2ccc(C3CCCC3)nc2)c1 [Beispiel 5.195]	4.27	–	–
C[S+]([O-])c1cccc(C#CCON=Cc2ccc(C3CCCC3)nc2)c1 (stereo not drawn) [Beispiel 5.196]	3.43	–	–
COc1ncc(C=NOCC#Cc2cc(SC)c(F)c(SC)c2)cc1F [Beispiel 5.198]	4.65	–	–
CS(=O)(=O)c1ccc(C=NOCC#Cc2cccc(CC#N)c2)cn1 [Beispiel 5.200]	2.18	–	–
COc1ccccc1-c1ccn(CC#Cc2cccc(SC)c2)n1 [Beispiel 6.050]	3.43	–	–
